From patent EP1066315B1 (University of Dundee, priority 1998, dated 2008)
Entries after “also recorded” stand apart in the source; their conditions may differ. Residues, ends and D or L forms follow the SMILES beside them. *: point of attachment. Fmoc = O=C(OCC1c2ccccc2-c2ccccc21)*

Experiments:
Human B-cell AEP = test: Digestion of TTCF by human B-cell AEP in the presence of tetrapeptides; type: biochemical; details: Fig 3d
[1] = test system: purified AEP (legumain from pig kidney); test: Digestion of TTCF with purified AEP in the presence of tetrapeptides; type: biochemical; details: 0.2 mg/ml peptide; Fig 3a
Experimental: The invention will now be described by reference to the following Examples and Figures wherein • Figure 1: Processing of TTCF by a leupeptin-insensitive cysteine endopeptidase activity. (a) TTCF was digested in vitro in the presence of disrupted lysosomes (1-2 µg) in the presence or absence of iodoacetamide (1 mM), leupeptin, E64 or pepstatin (each at 0.1 mg/ml). Digestions were in 0.1 M NH4 acetate at pH 4.5 or Na2HPO4, pH 6.0 or 7.0. After 4 hours at 37°C, the reactions were separated by Tris-tricine SDS-PAGE and stained with Coomassie Blue. (b) Cleavage sites: TTCF digestion products were separated by SDS PAGE and electrophoretically transferred to nitrocellulose membrane. Individual fragments numbered 1-6 were subjected to 5 cycles of Edman degradation. N-terminal sequence obtained is shown in bold following upstream residues from TTCF (tetanus toxin numbering). The N-terminal sequence of His-tagged TTCF was obtained for fragments 1 and 3. (c) Residues Asn 1184 and Glu 1184 in TTCF were mutated to alanine (see Methods) and digestions performed as before. The mutation abolishes cleavage at the mutated site but not at the first site (doublet at 47 kD). In this experiment cleavage of the third site was minimal. • Figure 2: TTCF is processed by an asparaginyl endopeptidase. (a) Chromatography of the TTCF processing activity on Mono-S resin. Fractions eluted by NaCl gradient were incubated with the substrates Z-Ala-Ala-Asn-NHMec or Z-Phe-Arg-NHMec in the presence or absence of E64 (trans-epoxysuccinyl-L-leucylamido-(4-guanidino)butane). […] (b) Fractions as above were incubated with 10 µg TTCF in the presence or absence of E64 for 4 hours at 37°C prior to SDS-PAGE analysis. (c) Each fraction was analysed by SDS-PAGE and Western blotting. Electrophoretically transferred material was probed with an affinity purified antiserum raised against the peptide KGIGSGKVLKSGPQC from human legumain^1. • Figure 3: Peptide inhibitors of AEP block asparaginyl endopeptidase activity and TTCF processing in vitro and in vivo. […] Release of 7-amino-4-methyl coumarin was measured after 10, 20 or 30 minutes. […] At different times the cells were washed, fixed in 0.05 % glutaraldehyde and antigen presentation measured using proliferation of different autologous TTCF-specific T cell clones. c, AEP pre-processing of TTCF speeds antigen presentation. […] Presentation was measured after 60 minutes of antigen pulsing using EBV B cells.
We decided to test the possibility that high concentrations of asparagine containing peptides might act as competitive inhibitors. […] To establish that inhibition of AEP was specific, we measured the hydrolysis of different synthetic peptide substrates in the presence and absence of these tetrapeptides.

[2] = test system: EBV-transformed B cells / autologous TTCF-specific T cell clones; test: TTCF antigen presentation by EBV-transformed B cells, read out as proliferation of autologous T cell clones; type: cell-based, human
Experimental: The invention will now be described by reference to the following Examples and Figures wherein • Figure 1: Processing of TTCF by a leupeptin-insensitive cysteine endopeptidase activity. (a) TTCF was digested in vitro in the presence of disrupted lysosomes (1-2 µg) in the presence or absence of iodoacetamide (1 mM), leupeptin, E64 or pepstatin (each at 0.1 mg/ml). Digestions were in 0.1 M NH4 acetate at pH 4.5 or Na2HPO4, pH 6.0 or 7.0. After 4 hours at 37°C, the reactions were separated by Tris-tricine SDS-PAGE and stained with Coomassie Blue. (b) Cleavage sites: TTCF digestion products were separated by SDS PAGE and electrophoretically transferred to nitrocellulose membrane. Individual fragments numbered 1-6 were subjected to 5 cycles of Edman degradation. N-terminal sequence obtained is shown in bold following upstream residues from TTCF (tetanus toxin numbering). The N-terminal sequence of His-tagged TTCF was obtained for fragments 1 and 3. (c) Residues Asn 1184 and Glu 1184 in TTCF were mutated to alanine (see Methods) and digestions performed as before. The mutation abolishes cleavage at the mutated site but not at the first site (doublet at 47 kD). In this experiment cleavage of the third site was minimal. • Figure 2: TTCF is processed by an asparaginyl endopeptidase. (a) Chromatography of the TTCF processing activity on Mono-S resin. Fractions eluted by NaCl gradient were incubated with the substrates Z-Ala-Ala-Asn-NHMec or Z-Phe-Arg-NHMec in the presence or absence of E64 (trans-epoxysuccinyl-L-leucylamido-(4-guanidino)butane). […] (c) Each fraction was analysed by SDS-PAGE and Western blotting. […] Release of 7-amino-4-methyl coumarin was measured after 10, 20 or 30 minutes. […] At different times the cells were washed, fixed in 0.05 % glutaraldehyde and antigen presentation measured using proliferation of different autologous TTCF-specific T cell clones. c, AEP pre-processing of TTCF speeds antigen presentation. […] Presentation was measured after 60 minutes of antigen pulsing using EBV B cells. […]

What does the source list for `C[C@H](NC(=O)OCC1c2ccccc2-c2ccccc21)C(=O)N[C@@H](CCC(=O)O)C(=O)N[C@@H](CC(N)=O)C(=O)N[C@@H](CCCCN)C(N)=O` [AENK, Ala-Glu-Asn-Lys-NH] (Fmoc-AENK-NH2)?
inhibition of TTCF digestion by human B-cell AEP (Human B-cell AEP): inhibited; inhibition of processing of TTCF by AEP [1]: substantially inhibited; presentation of AEP-pre-processed antigen ([2]; EBV B cells, TTCF pre-processed with AEP, 60 minutes of antigen pulsing, Fig 9d): no longer inhibited; also recorded: did not block; antigen presentation by EBV-B cells ([2]; EBV-B cells from donor, 2 mg/ml peptide, Fig 9b): blocked antigen presentation by EBV-B cells very effectively
